Measurements reported in the supplement of paper PMC10307832.

Assays:
Assay in all cases: relative viability (nuclei count vs DMSO), 5 days (fraction); higher = more cells survive
[1] = compound: O=C(O)c1ccc2c(c1)nc(Nc1cccc(Cl)c1)c1ccncc12 [Silmitasertib] + C[C@]1(O)C[C@@H](c2nc(-c3ccc4ccc(-c5ccccc5)nc4c3)c3c(N)nccn32)C1 [Linsitinib] (partner 1 µM)
How it was run: (§1)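 One day after seeding in 1536-well plates, lung cancer cell lines were dosed by pin tool. Dosing was either single-drug or a fixed anchor-drug dose plus five library-drug doses (not always all listed) in √10 steps. After 5 days, nuclei were stained in one fix-and-stain step and counted on 4× images, and relative viability is the nuclei count of treated wells over that of vehicle wells, given as the median of duplicate plates.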

[2] = compound: O=C(O)c1ccc2c(c1)nc(Nc1cccc(Cl)c1)c1ccncc12 [Silmitasertib] + O=C(CCCCCCC(=O)Nc1ccccc1)NO [Vorinostat] (partner 1 µM)
How it was run: as §1

[3] = compound: O=C(O)c1ccc2c(c1)nc(Nc1cccc(Cl)c1)c1ccncc12 [Silmitasertib] + CCNC(=O)c1noc(-c2cc(C(C)C)c(O)cc2O)c1-c1ccc(CN2CCOCC2)cc1 [Luminespib] (partner 0.01 µM)
How it was run: as §1

[4] = compound: O=C(O)c1ccc2c(c1)nc(Nc1cccc(Cl)c1)c1ccncc12 [Silmitasertib] + C[C@@H](Oc1cc(-c2cnn(C3CCNCC3)c2)cnc1N)c1c(Cl)ccc(F)c1Cl [Crizotinib] (partner 1 µM)
How it was run: as §1

Silmitasertib = compound: O=C(O)c1ccc2c(c1)nc(Nc1cccc(Cl)c1)c1ccncc12 [Silmitasertib]
How it was run: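 Lung cancer cell lines in 1536-well plates were kept overnight at 37 °C, then pinned with five library-drug doses (not always all listed) spaced by √10 on vehicle-anchored plates. After 5 days without medium change, cells were fixed, permeabilised and Hoechst-stained in one step, imaged at 4×, and nuclei were counted with MetaXpress. Viability is treated-well nuclei divided by vehicle-well nuclei, taken as the median over plates. Plates passed only with control CV below 25% and at least one doubling.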

| Cell Line | relative viability ([1]; first compound 0.04 µM) | relative viability ([1]; first compound 1.265 µM) | relative viability ([1]; first compound 4 µM) | relative viability ([2]; first compound 0.04 µM) | relative viability ([2]; first compound 0.4 µM) | relative viability ([2]; first compound 1.265 µM) | relative viability ([2]; first compound 4 µM) | relative viability ([3]; first compound 0.04 µM) | relative viability ([3]; first compound 0.4 µM) | relative viability ([3]; first compound 1.265 µM) | relative viability ([3]; first compound 4 µM) | relative viability ([4]; first compound 0.04 µM) | relative viability ([4]; first compound 1.265 µM) | relative viability ([4]; first compound 4 µM) | relative viability (Silmitasertib; 0.04 µM) | relative viability (Silmitasertib; 0.4 µM) | relative viability (Silmitasertib; 1.265 µM) | relative viability (Silmitasertib; 4 µM) | relative viability ([1]; first compound 0.4 µM) | relative viability ([4]; first compound 0.4 µM) |
| --- | --- | --- | --- | --- | --- | --- | --- | --- | --- | --- | --- | --- | --- | --- | --- | --- | --- | --- | --- | --- |
| NCI-H23 | 0.662 | 0.448 | 0.582 | 0.6 | 0.281 | 0.545 | 0.165 | 0.217 | 0.197 | 0.215 | 0.217 | 0.51 | 0.384 | 0.362 | 1.07 | 0.395 | 0.747 | 0.372 |  |  |
| NCI-H322M | 0.868 | 0.62 | 0.453 | 0.994 | 0.936 | 0.968 | 0.653 | 0.968 | 0.893 | 0.693 | 0.44 | 0.878 | 0.511 | 0.281 | 1.08 | 0.882 | 0.826 | 0.486 | 0.809 | 0.662 |
| NCI-H358 | 0.902 | 0.585 | 0.607 | 0.774 | 0.652 | 0.677 | 0.692 | 0.39 |  | 0.22 | 0.192 | 0.616 | 0.493 | 0.407 | 1.13 | 0.757 | 0.744 | 0.667 | 0.799 | 0.47 |
| NCI-H441 | 0.455 | 0.389 | 0.35 | 0.935 |  | 0.822 | 0.843 | 0.369 |  | 0.329 | 0.242 | 0.814 | 0.787 | 0.6 | 1 |  | 0.892 | 0.757 |  |  |
| NCI-H460 | 0.779 | 0.782 | 0.899 | 0.722 | 0.747 | 0.668 | 0.842 | 0.0354 | 0.0304 | 0.0278 | 0.0318 | 0.91 | 0.755 | 0.865 | 1.03 | 0.951 | 0.959 | 0.799 | 0.84 | 0.866 |
| NCI-H520 | 1.05 | 1.04 | 0.785 | 0.773 | 0.907 | 0.912 | 0.802 | 0.242 | 0.232 | 0.242 | 0.289 | 0.821 | 0.792 | 0.612 | 1.11 | 0.835 | 0.887 | 0.802 | 1.17 | 0.728 |
| NCI-H596 | 1.09 | 0.839 | 0.933 | 0.768 | 0.616 | 0.611 | 0.375 | 0.948 | 0.843 | 0.918 | 1 | 1.01 | 0.909 | 0.964 | 0.958 | 0.792 | 0.947 | 0.658 | 1.07 | 1.01 |
| NCI-H647 | 1.37 | 1.05 | 0.663 | 0.868 | 0.666 | 0.672 | 0.704 | 0.159 | 0.268 | 0.241 | 0.133 | 1.26 | 0.932 | 0.48 | 0.968 | 0.758 | 0.723 | 0.498 | 1.24 | 1.1 |
| NCI-H650 | 0.96 | 0.757 | 0.407 | 0.626 | 0.281 | 0.475 | 0.244 | 0.886 | 0.599 | 0.436 | 0.457 | 0.79 | 0.463 | 0.378 | 1.17 | 0.567 | 0.66 | 0.379 | 0.563 | 0.502 |
| NCI-H661 | 0.646 | 0.38 | 0.577 | 0.812 | 0.847 | 0.737 | 0.631 | 0.959 | 1.04 | 0.838 | 0.825 | 1.02 |  | 1.1 | 1.06 | 0.829 | 0.946 | 0.991 |  | 0.929 |
| NCI-H727 | 0.327 | 0.303 | 0.166 | 1.36 | 0.822 | 0.83 | 1.16 | 0.332 | 0.274 | 0.404 | 0.358 | 0.868 | 0.753 | 0.485 | 1.18 | 0.619 | 0.833 | 0.894 | 0.287 | 0.65 |
| NCI-H838 | 1.09 | 0.899 | 0.608 | 0.787 | 0.837 | 0.807 | 0.848 | 0.29 |  | 0.338 | 0.217 | 0.941 | 0.861 | 0.511 | 1.03 | 0.747 | 0.925 | 0.678 |  |  |
| NCI-H1355 | 0.857 | 0.768 | 0.796 | 0.664 |  | 0.622 | 0.499 | 0.776 |  | 0.69 | 0.576 | 1.07 | 1.1 | 1.07 | 1.06 |  | 0.918 | 0.668 |  |  |
| NCI-H1437 | 1.03 | 0.691 | 0.36 | 0.844 | 0.787 | 0.701 | 0.43 | 1.17 | 1.04 | 1.03 | 0.823 | 0.916 | 0.865 | 0.778 | 1.04 | 0.679 | 0.784 | 0.737 |  |  |
| NCI-H1651 | 0.944 | 0.901 | 0.942 | 0.572 | 0.456 | 0.335 | 0.594 | 0.985 | 1.01 | 0.916 | 0.71 | 0.88 | 0.834 | 0.924 | 0.974 | 0.991 | 1.02 | 0.989 | 1 | 0.727 |
| NCI-H1666 | 0.919 | 0.682 | 0.536 | 1.06 | 0.845 | 0.855 | 0.689 | 1.04 | 0.955 | 0.708 | 0.634 | 0.918 | 0.691 | 0.508 | 1.05 | 0.834 | 0.745 | 0.692 | 0.571 | 0.787 |
| NCI-H1734 | 0.884 | 0.801 | 0.929 | 0.849 | 0.705 | 0.874 | 0.582 | 0.185 | 0.209 | 0.186 | 0.202 | 0.628 | 0.606 | 0.655 | 1.07 | 0.816 | 0.975 | 0.691 |  |  |
